{"source": "paper PMC4175417", "about": "(Journal of clinical pharmacology, 2013)", "key": {"[1]": {"assay": "Axitinib exposure", "assay_type": "in vivo", "conditions": "human, plasma, oral"}, "[2]": {"assay": "In-clinic diastolic blood pressure in mRCC patients of the PK/PD analysis", "assay_type": "in vivo, human", "conditions": "maximum post-baseline dBP within the first 8 weeks; 168 mRCC patients"}, "[3]": {"system": "mRCC patients", "assay": "Efficacy in mRCC studies", "assay_type": "in vivo, human"}, "[4]": {"conditions": "cited from earlier work"}, "[5]": {"system": "mRCC", "conditions": "second-line therapy for mRCC; cited from earlier work"}, "[6]": {"system": "mRCC patients", "conditions": "cited from earlier work"}, "[7]": {"assay": "clinical", "conditions": "human, in vivo"}, "[8]": {"conditions": "cited from earlier work", "remark": "listed apart in the source"}, "[9]": {"conditions": "corrected serum calcium <10 mg/dL"}, "[10]": {"conditions": "corrected serum calcium ≥10 mg/dL"}, "[11]": {"conditions": "corrected serum calcium ≥10 vs <10 mg/dL"}, "[12]": {"conditions": "hemoglobin >13 g/dL for male, >11.5 for female"}, "[13]": {"conditions": "hemoglobin ≤13 g/dL for male, ≤11.5 for female"}, "[14]": {"conditions": "per 10 mm Hg increase of dBP, adjusted for prognostic factors"}, "[15]": {"conditions": "per 100 hxng/mL increase of AUC, adjusted for prognostic factors"}, "[16]": {"conditions": "sorafenib- vs cytokine-refractory"}}, "note": "Read-outs that look alike come from different tables or passages of the source. Marks after values point to notes of the source that are not given here."}
{"compound": "CNC(=O)c1ccccc1Sc1ccc2c(/C=C/c3ccccn3)n[nH]c2c1", "note": "[axitinib]", "values": [{"measurement": "AUC", "setting": "[1]", "value": 375, "unit": "ng·h/mL"}, {"measurement": "dBP, median (range)", "setting": "[2]", "value": "90 (58–116) ^e mm Hg"}, {"measurement": "mOS", "setting": "[3]; AUC <300 hxng/mL", "value": 15.8, "unit": "months"}, {"measurement": "mPFS", "setting": "[3]; AUC <300 hxng/mL", "value": 7.4, "unit": "months"}, {"measurement": "mOS", "setting": "[3]; AUC ≥300 hxng/mL", "value": 37.4, "unit": "months"}, {"measurement": "mPFS", "setting": "[3]; AUC ≥300 hxng/mL", "value": 13.8, "unit": "months"}, {"measurement": "OS HR (95% CI), multivariate", "setting": "[3]; ECOG PS", "value": "2.37 (1.50, 3.72)"}, {"measurement": "PFS HR (95% CI), multivariate", "setting": "[3]; ECOG PS", "value": "1.82 (1.17, 2.83)"}, {"measurement": "mOS", "setting": "[3]; ECOG PS 0", "value": 41.6, "unit": "months"}, {"measurement": "mPFS", "setting": "[3]; ECOG PS 0", "value": 13.7, "unit": "months"}, {"measurement": "mOS", "setting": "[3]; ECOG PS 1", "value": 10.7, "unit": "months"}, {"measurement": "mPFS", "setting": "[3]; ECOG PS 1", "value": 7.13, "unit": "months"}, {"measurement": "OS HR (95% CI), univariate", "setting": "[3]; ECOG PS 1 vs 0", "value": "3.63 (2.40, 5.48)"}, {"measurement": "PFS HR (95% CI), univariate", "setting": "[3]; ECOG PS 1 vs 0", "value": "2.17 (1.46, 3.23)"}, {"measurement": "OS HR (95% CI), univariate", "setting": "[3]; age, continuous", "value": "0.992 (0.972, 1.01)"}, {"measurement": "PFS HR (95% CI), univariate", "setting": "[3]; age, continuous", "value": "1.006 (0.986, 1.026)"}, {"measurement": "mOS", "setting": "[3]; [9]", "value": 27.7, "unit": "months"}, {"measurement": "mPFS", "setting": "[3]; [9]", "value": 11.1, "unit": "months"}, {"measurement": "mOS", "setting": "[3]; [10]", "value": 16.4, "unit": "months"}, {"measurement": "mPFS", "setting": "[3]; [10]", "value": 8.38, "unit": "months"}, {"measurement": "OS HR (95% CI), univariate", "setting": "[3]; [11]", "value": "1.74 (1.03, 2.96)"}, {"measurement": "PFS HR (95% CI), univariate", "setting": "[3]; [11]", "value": "1.21 (0.688, 2.13)"}, {"measurement": "mOS", "setting": "[3]; cytokine-refractory", "value": 30.0, "unit": "months"}, {"measurement": "mPFS", "setting": "[3]; cytokine-refractory", "value": 13.0, "unit": "months"}, {"measurement": "mOS", "setting": "[3]; dBP <90 mm Hg", "value": 18.5, "unit": "months"}, {"measurement": "mPFS", "setting": "[3]; dBP <90 mm Hg", "value": 7.86, "unit": "months"}, {"measurement": "mOS", "setting": "[3]; dBP ≥90 mm Hg", "value": 29.5, "unit": "months"}, {"measurement": "mPFS", "setting": "[3]; dBP ≥90 mm Hg", "value": 14.6, "unit": "months"}, {"measurement": "mOS", "setting": "[3]; female", "value": 19.6, "unit": "months"}, {"measurement": "mPFS", "setting": "[3]; female", "value": 7.63, "unit": "months"}, {"measurement": "OS HR (95% CI), univariate", "setting": "[3]; female vs male", "value": "1.26 (0.799, 1.97)"}, {"measurement": "PFS HR (95% CI), univariate", "setting": "[3]; female vs male", "value": "1.63 (1.09, 2.46)"}, {"measurement": "Increase in the probability of achieving a partial response", "setting": "[3]; for every 100 hxng/mL increase in AUC, logistic regression", "value": 1.5, "unit": "fold"}, {"measurement": "PFS HR (95% CI), multivariate", "setting": "[3]; gender", "value": "1.72 (1.14, 2.60)"}, {"measurement": "OS HR (95% CI), multivariate", "setting": "[3]; hemoglobin", "value": "0.348 (0.213, 0.567)"}, {"measurement": "PFS HR (95% CI), multivariate", "setting": "[3]; hemoglobin", "value": "0.601 (0.393, 0.921)"}, {"measurement": "mOS", "setting": "[3]; [12]", "value": 43.3, "unit": "months"}, {"measurement": "mPFS", "setting": "[3]; [12]", "value": 14.6, "unit": "months"}, {"measurement": "mOS", "setting": "[3]; [13]", "value": 15.9, "unit": "months"}, {"measurement": "mPFS", "setting": "[3]; [13]", "value": 7.69, "unit": "months"}, {"measurement": "OS HR (95% CI), univariate", "setting": "[3]; high vs low hemoglobin", "value": "0.282 (0.179, 0.443)"}, {"measurement": "PFS HR (95% CI), univariate", "setting": "[3]; high vs low hemoglobin", "value": "0.537 (0.364, 0.792)"}, {"measurement": "mOS", "setting": "[3]; male", "value": 27.7, "unit": "months"}, {"measurement": "mPFS", "setting": "[3]; male", "value": 13.0, "unit": "months"}, {"measurement": "OS HR (95% CI), multivariate", "setting": "[3]; [14]", "value": "0.739 (0.586, 0.931)"}, {"measurement": "PFS HR (95% CI), multivariate", "setting": "[3]; [14]", "value": "0.660 (0.519, 0.839)"}, {"measurement": "OS HR (95% CI), multivariate", "setting": "[3]; [15]", "value": "0.866 (0.773, 0.968)"}, {"measurement": "PFS HR (95% CI), multivariate", "setting": "[3]; [15]", "value": "0.909 (0.832, 0.993)"}, {"measurement": "OS HR (95% CI), multivariate", "setting": "[3]; prior therapy", "value": "2.12 (1.35, 3.34)"}, {"measurement": "PFS HR (95% CI), multivariate", "setting": "[3]; prior therapy", "value": "1.60 (1.04, 2.47)"}, {"measurement": "OS HR (95% CI), univariate", "setting": "[3]; [16]", "value": "2.15 (1.39, 3.34)"}, {"measurement": "PFS HR (95% CI), univariate", "setting": "[3]; [16]", "value": "1.55 (1.02, 2.34)"}, {"measurement": "mOS", "setting": "[3]; sorafenib-refractory", "value": 15.8, "unit": "months"}, {"measurement": "mPFS", "setting": "[3]; sorafenib-refractory", "value": 7.63, "unit": "months"}, {"measurement": "Effect of food on oral bioavailability", "setting": "Form XLI", "value": "negligible effect"}, {"measurement": "Vp (volume of distribution in peripheral compartment)", "setting": "final model", "value": 393, "unit": "L"}, {"measurement": "Age >60-yr effect on CL", "setting": "human, in vivo", "value": "−0.213"}, {"measurement": "F with Form XLI", "setting": "human, in vivo", "value": "g F with Form XLI is estimated to be 0.402; calculated as 0.457 × (1 – 0.121). Note that there was no observed food effect with Form XLI."}, {"measurement": "F, fasting with Form IV", "setting": "human, in vivo", "value": "f For fasting effect with Form IV, F is estimated to be 0.608; calculated as 0.457 × (1 + 0.33)."}, {"measurement": "Fasting effect on ka", "setting": "human, in vivo", "value": 1.97}, {"measurement": "Fasting on F, Form IV", "setting": "human, in vivo", "value": 0.330}, {"measurement": "Japanese ethnicity effect on CL", "setting": "human, in vivo", "value": "−0.249"}, {"measurement": "Q (apparent inter-compartmental clearance)", "setting": "human, in vivo", "value": "4.00 (86.8) ^d L/h"}, {"measurement": "Smoking status on CL", "setting": "human, in vivo", "value": 1.02}, {"measurement": "ka (first-order absorption rate constant): fed", "setting": "human, in vivo", "value": "0.482 (77) hour^–1"}, {"measurement": "ka higher in the fasted state compared with the fed state", "setting": "human, in vivo", "value": 197, "unit": "%"}, {"measurement": "ka, fasting", "setting": "human, in vivo", "value": "e For fasting effect, ka is estimated to be 1.43 hour^−1; calculated as 0.482 hour^−1 × (1 + 1.97)."}, {"measurement": "tlag (absorption lag time)", "setting": "human, in vivo", "value": 0.454, "unit": "h"}, {"measurement": "Increase of oral bioavailability in the fasted state compared with the fed state", "setting": "human, in vivo, po", "value": 33, "unit": "%"}, {"measurement": "Exposure compared with normal hepatic function", "setting": "[4]; mild hepatic impairment", "value": "did not alter axitinib exposures"}, {"measurement": "Higher exposure compared with normal hepatic function", "setting": "[4]; moderate hepatic impairment", "value": 2, "unit": "fold"}, {"measurement": "Efficacy versus sorafenib", "setting": "[5]", "value": "superior efficacy over sorafenib"}, {"measurement": "RECIST-based overall response rate", "setting": "[6]; study 2, cytokine-refractory mRCC", "value": 44, "unit": "%"}, {"measurement": "RECIST-based overall response rate", "setting": "[6]; study 4, sorafenib-refractory mRCC", "value": 23, "unit": "%"}, {"measurement": "RECIST-based overall response rate", "setting": "[6]; study 5, Japanese cytokine-refractory mRCC", "value": 50, "unit": "%"}, {"measurement": "Vd", "setting": "[7]", "value": 47.3, "unit": "L"}, {"measurement": "clearance", "setting": "[7]", "value": 243, "unit": "mL/min"}, {"measurement": "Time to peak plasma concentration", "setting": "[8]; oral administration, fed state", "value": "2 to 6", "unit": "h"}, {"measurement": "Maximum tolerated dose (MTD)", "setting": "[8]; study 1, patients with solid tumors", "value": 5, "unit": "mg bid"}]}
